Values of other authors in patent publication US20100273749A1, “Method for Treating Dry-Eye Syndrome” (priority 2006, published 2010).

Tested on: ACAT
Settings: several animal studies, nonselective ACAT inhibitors

SMILES | reduction of atherosclerotic plaques
CC(C)c1cc(C(C)C)c(CC(=O)NS(=O)(=O)Oc2c(C(C)C)cccc2C(C)C)c(C(C)C)c1 [avasimibe] | promising reduction of atherosclerotic plaques
CCCCCCCCN1CCc2c(C)c(CC(=O)O)c(C)c(NC(=O)C(C)(C)C)c21 [pactimibe] | promising reduction of atherosclerotic plaques
